# Data as given in ChEMBL document CHEMBL1124966, “Cholecystokinin-A receptor ligands based on the kappa-opioid agonist tifluadom” (J Med Chem, 1990).
# Molecular target: T1, Cholecystokinin receptor type A (Rattus norvegicus, UniProt P30551)
# T1 sequence (P30551 whole entry): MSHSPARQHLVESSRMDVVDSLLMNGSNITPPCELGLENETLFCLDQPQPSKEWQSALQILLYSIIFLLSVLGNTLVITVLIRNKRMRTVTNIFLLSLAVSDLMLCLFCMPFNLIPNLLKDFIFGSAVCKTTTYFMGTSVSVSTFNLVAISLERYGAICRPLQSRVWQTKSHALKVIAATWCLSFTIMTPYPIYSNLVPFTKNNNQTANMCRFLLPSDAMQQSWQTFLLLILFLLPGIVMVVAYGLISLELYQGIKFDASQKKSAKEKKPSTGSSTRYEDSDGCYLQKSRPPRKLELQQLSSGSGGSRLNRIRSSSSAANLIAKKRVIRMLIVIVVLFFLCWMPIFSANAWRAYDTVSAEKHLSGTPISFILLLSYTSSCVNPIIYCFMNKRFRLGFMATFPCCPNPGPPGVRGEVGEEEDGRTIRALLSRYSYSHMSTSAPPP
# Experiment: Inhibition of binding of [125I]CCK-8 to Cholecystokinin type A receptor in rat pancreas
row,SMILES,IC50 [µM]
1,"O=C(NCC1CNc2ccccc2C(c2ccccc2F)=N1)C(O)c1ccccc1 (single isomer, unassigned; form 2)",> 100
2,Cc1ccc(C(=O)NC[C@H]2CN=C(c3ccc(F)cc3)c3ccc(C)cc3N2C)cc1,0.26
3,NCC1N=C(c2ccccc2F)c2ccccc2NC1=O (centres undefined),> 100
4,O=C(NCC1N=C(c2ccccc2F)c2ccccc2NC1=O)c1cc2ccccc2[nH]1 (centres undefined),7
5,O=C(NCC1CNc2ccccc2C(c2ccccc2F)=N1)c1cc2ccccc2[nH]1 (centres undefined),4
6,O=C1Nc2ccccc2C(c2ccccc2F)=NC1CNCC1N=C(c2ccccc2F)c2ccccc2NC1=O (centres undefined),14
7,O=C(NCC1N=C(c2ccccc2F)c2ccccc2NC1=O)OCc1ccccc1 (centres undefined),22
8,CCN(CC)CNCC1CN=C(c2ccccc2F)c2ccccc2N1C (centres undefined),> 100
9,CN1c2ccccc2C(c2ccccc2F)=NCC1CNC(=O)c1ccsc1 (racemic) [TIFLUADOM],0.047
10,"O=C(NCC1CNc2ccccc2C(c2ccccc2F)=N1)C(O)c1ccccc1 (single isomer, unassigned; form 1)",8
11,O=C(NCC1N=C(c2ccccc2F)c2ccccc2NC1=O)c1ccsc1 (centres undefined),22
12,COC(=O)CC(NCC1CN=C(c2ccccc2F)c2ccccc2N1C)c1ccccc1 (centres undefined),0.018
13,Cc1ccc(C(=O)NC[C@@H]2CN=C(c3ccc(F)cc3)c3ccc(C)cc3N2C)cc1,0.029
14,O=C(NCC1CNc2ccccc2C(c2ccccc2F)=N1)c1ccsc1 (centres undefined),10
15,CCN(CC)c1ccc(NCC2CN=C(c3ccccc3F)c3ccccc3N2C)cc1C(F)(F)F (centres undefined),100
16,O=C(NCC1CNc2ccccc2C(c2ccccc2F)=N1)OCc1ccccc1 (centres undefined),28
17,CN1c2ccccc2C(c2ccccc2F)=NCC1CNC(=O)C(O)c1ccccc1 (centres undefined),0.6
18,O=C1Nc2ccccc2C(c2ccccc2F)=NC1CNc1cnc(Cl)cn1 (centres undefined),15

# Molecular target: Opioid receptor (Rattus norvegicus, UniProt P33533+P34975+P33535)
# Experiment: Displacement of [3H]dihydromorphine (DHM) from rat brain Opioid receptors
row,SMILES,IC50 [µM]
1,CN1c2ccccc2C(c2ccccc2F)=NCC1CNC(=O)Cc1cccc2sccc12 (centres undefined),0.003
2,O=C(NCC1N=C(c2ccccc2F)c2ccccc2NC1=O)OCc1ccccc1 (centres undefined),12
3,CN1c2ccccc2C(c2ccccc2F)=NCC1CNC(=O)c1cc2ccccc2[nH]1 (centres undefined),0.0003
4,CN1c2ccccc2C(c2ccccc2F)=NCC1CNC(=O)c1ccc(Cl)cc1 (centres undefined),0.0005
5,CN1c2ccccc2C(c2ccccc2F)=NCC1CNC(=O)C(N)Cc1c[nH]c2ccccc12 (centres undefined),0.04
6,COC(=O)CC(NCC1CN=C(c2ccccc2F)c2ccccc2N1C)c1ccccc1 (centres undefined),0.018
7,CN1c2ccccc2C(c2ccccc2F)=NCC1CNC(=O)Cc1c[nH]c2ccccc12 (centres undefined),0.022
8,CC(=O)NCSCC(=O)NCC1CN=C(c2ccccc2F)c2ccccc2N1C (centres undefined),0.12
9,CN1c2ccccc2C(c2ccccc2F)=NCC1CNC(=O)C(O)c1ccccc1 (centres undefined),0.007
10,CN1c2ccccc2C(c2ccccc2F)NCC1CNC(=O)c1ccsc1 (centres undefined),0.03
11,CN1c2ccccc2C(c2ccccc2F)=NCC1CNC(=O)c1cccnc1 (centres undefined),0.45
